US11304962B2, “Methods of reducing risk of preterm birth” (COVIS Pharma GmbH, priority 2015, dated 2022)
≈ marks a conversion by molar mass, not a printed value. Like-named read-outs stand apart in the source and are kept apart here.

How the values were obtained:
[1] = Single-dose crossover pharmacokinetic study of 17-HPC, SQ (upper anterior thigh) vs IM (gluteus maximus) injection; format: in vivo, human; details: for AUC(0-t) / Cmax: female, human, single dose, healthy postmenopausal women, plasma; for AUC(0-t): read-out: AUC0-t, LS Geometric Mean; for Cmax: read-out: Cmax, LS Geometric Mean
Method: An open-label, randomized, single-dose, two-period, two-treatment, four-sequence, crossover study was conducted to compare equal 250 mg doses of 17-HPC injections, 250 mg/ml given as either a 1 mL deep IM injection to the upper outer quadrant of the gluteus maximus or a 1 mL SQ injection to the upper anterior thigh. The study was conducted with 12 healthy, non-tobacco using postmenopausal adult women. The subjects were given the SQ injection in one study period and the IM injection in the other study period according to the four-sequence randomization schedule. Blood was taken at 4, 24, 48, 72, 96, 120 and 144-hours post-treatment, and plasma concentrations of 17-HPC were measured. The interval between doses was 21 days. The analytical data were used to estimate the pharmacokinetic parameters AUC0-t, Cmax, and Tmax.

[2] = Solubility of HPC in benzyl benzoate/castor oil mixtures; format: physicochemical; details: for solubility: benzyl benzoate/castor oil mixture, oil or lipid, read-out: mg HPC/mL solution (solubility)
Description: Weight percent of BB is relative to the castor oil.

[3] = Randomized bioavailability study of 17-HPC, SC injection in triceps area (1.1 or 1.2 mL) vs IM injection (1.0 mL); format: in vivo, human; details: for AUC(0-t) / AUC(0-inf) / Cmax / Tmax / half-life: female, human, plasma; for Cmax: healthy postmenopausal women, read-out: Cmax, geometric mean (geometric CV); for Tmax: read-out: Tmax, median; for half-life: read-out: t½, geometric mean (geometric CV) (converted)
Method: A randomized study is conducted to compare the bioavailability and injection site pain when 17-HPC, 250 mg/mL, is administered as a single 1.0 mL IM injection (250 mg) in the gluteus maximus or a 1.1 (275 mg) or 1.2 mL (300 mg) SQ injection in the triceps area of healthy post-menopausal women. Patients are randomized into two groups by route of administration. Group A receives a 1.0 mL IM injection of 17-HPC into the upper outer quadrant of the gluteus maximus. Group B receives a 1.1 or 1.2 mL SC injection into the upper outer thigh or arm (triceps area). Patient reported outcomes of injection site pain are collected to assess the safety and usability of SQ administration, either by medical staff or for self-administration of 17-HPC.
All patients have blood drawn prior to administration of 17-HPC, and at 2, 4, 8, 12, 18 and 24 hours post dose, and again at approximately the same time as dosing on days 2-7, 14, 21, and 28.

[4] = 250 mg SQ thigh vs 250 mg IM gluteus maximus
[5] = subcutaneous, SQ injection 250 mg (1 mL) upper anterior thigh
[6] = IM injection 250 mg (1 mL) gluteus maximus
[7] = 25° C., 63.33 wt % BB relative to castor oil
[8] = IM 1.0 mL (250 mg) gluteus maximus
[9] = SC 1.1 mL (275 mg) triceps area
[10] = SC 1.2 mL (300 mg) triceps area

Question: Which results are given for CCCCCC(=O)O[C@]1(C(C)=O)CC[C@H]2[C@@H]3CCC4=CC(=O)CC[C@]4(C)[C@H]3CC[C@@]21C [17-HPC, 17-alpha-hydroxyprogesterone caproate]?
Answer: AUC0-t LSGM Ratio A (SQ) vs B (IM) [1, 4]: 73.85%; Cmax LSGM Ratio A (SQ) vs B (IM) [1, 4]: 68.39%; AUC(0-t) [1, 5]: 458 ng·h/mL; Cmax [1, 5]: 4.2 ng/mL; AUC(0-t) [1, 6]: 621 ng·h/mL; Cmax [1, 6]: 6.14 ng/mL; Avg. HPC wt % (solubility) ([2]; 5° C., 53.01 wt % BB relative to castor oil): 18.60 wt %; Avg. HPC wt % (solubility) ([2]; 5° C., 63.33 wt % BB relative to castor oil): 20.31 wt %; Avg. HPC wt % (solubility) ([2]; 5° C., 69.43 wt % BB relative to castor oil): 21.62 wt %; Avg. HPC wt % (solubility) ([2]; 5° C., 75.59 wt % BB relative to castor oil): 23.00 wt %; Avg. HPC wt % (solubility) ([2]; 5° C., 81.79 wt % BB relative to castor oil): 24.65 wt %; Avg. HPC wt % (solubility) ([2]; 5° C., 87.91 wt % BB relative to castor oil): 25.22 wt %; Avg. HPC wt % (solubility) ([2]; 15° C., 53.01 wt % BB relative to castor oil): 20.49 wt %; Avg. HPC wt % (solubility) ([2]; 15° C., 63.33 wt % BB relative to castor oil): 22.96 wt %; Avg. HPC wt % (solubility) ([2]; 15° C., 69.43 wt % BB relative to castor oil): 24.28 wt %; Avg. HPC wt % (solubility) ([2]; 15° C., 75.59 wt % BB relative to castor oil): 25.97 wt %; Avg. HPC wt % (solubility) ([2]; 15° C., 81.79 wt % BB relative to castor oil): 27.32 wt %; Avg. HPC wt % (solubility) ([2]; 15° C., 87.91 wt % BB relative to castor oil): 28.30 wt %; Avg. HPC wt % (solubility) ([2]; 25° C., 53.01 wt % BB relative to castor oil): 24.08 wt %; Avg. HPC wt % (solubility) [2, 7]: 27.17 wt %; Avg. HPC wt % (solubility) ([2]; 25° C., 69.43 wt % BB relative to castor oil): 28.76 wt %; Avg. HPC wt % (solubility) ([2]; 25° C., 75.59 wt % BB relative to castor oil): 30.62 wt %; Avg. HPC wt % (solubility) ([2]; 25° C., 81.79 wt % BB relative to castor oil): 31.98 wt %; Avg. HPC wt % (solubility) ([2]; 25° C., 87.91 wt % BB relative to castor oil): 33.26 wt %; solubility data over multiple days ([2]; BB/castor oil with and without benzyl alcohol, 5, 15, 25° C., over 5 days): fairly constant; solubility ([2]; 5 °C, 5° C., 53.01 wt % BB relative to castor oil): 200 mg/mL (≈ 467 mM); solubility ([2]; 5 °C, 5° C., 63.33 wt % BB relative to castor oil): 222 mg/mL (≈ 518 mM); solubility ([2]; 5 °C, 5° C., 69.43 wt % BB relative to castor oil): 238 mg/mL (≈ 555 mM); solubility ([2]; 5 °C, 5° C., 75.59 wt % BB relative to castor oil): 253 mg/mL (≈ 590 mM); solubility ([2]; 5 °C, 5° C., 81.79 wt % BB relative to castor oil): 273 mg/mL (≈ 637 mM); solubility ([2]; 5 °C, 5° C., 87.91 wt % BB relative to castor oil): 284 mg/mL (≈ 663 mM); solubility ([2]; 15 °C, thermodynamic from solid, 15° C., 53.01 wt % BB relative to castor oil): 220 mg/mL (≈ 513 mM); solubility ([2]; 15 °C, thermodynamic from solid, 15° C., 63.33 wt % BB relative to castor oil): 254 mg/mL (≈ 593 mM); solubility ([2]; 15 °C, thermodynamic from solid, 15° C., 69.43 wt % BB relative to castor oil): 269 mg/mL (≈ 628 mM); solubility ([2]; 15 °C, thermodynamic from solid, 15° C., 75.59 wt % BB relative to castor oil): 289 mg/mL (≈ 674 mM); solubility ([2]; 15 °C, thermodynamic from solid, 15° C., 81.79 wt % BB relative to castor oil): 306 mg/mL (≈ 714 mM); solubility ([2]; 15 °C, thermodynamic from solid, 15° C., 87.91 wt % BB relative to castor oil): 320 mg/mL (≈ 747 mM); solubility ([2]; 25 °C, 25° C., 69.43 wt % BB relative to castor oil): 321 mg/mL (≈ 749 mM); solubility ([2]; 25 °C, 25° C., 75.59 wt % BB relative to castor oil): 347 mg/mL (≈ 810 mM); solubility ([2]; 25 °C, 25° C., 81.79 wt % BB relative to castor oil): 363 mg/mL (≈ 847 mM); solubility ([2]; 25 °C, 25° C., 87.91 wt % BB relative to castor oil): 382 mg/mL (≈ 891 mM); solubility ([2]; 25 °C, thermodynamic from solid, 25° C., 53.01 wt % BB relative to castor oil): 262 mg/mL (≈ 611 mM); solubility [2, 7]: 303 mg/mL (≈ 707 mM); […]z, geometric mean (geometric CV) [3, 8]: 0.0031 (37.3) [11] 1/hr; […]z, geometric mean (geometric CV) [3, 9]: 0.0031 (26.8) [17] 1/hr; […]z, geometric mean (geometric CV) [3, 10]: 0.0031 (38.4) [14] 1/hr; AUC(0-t) Least Squares Geometric Mean Ratio, Estimate ([3]; SC (1.1 mL) vs. IM (1.0 mL)): 103.64%; AUC(inf) Least Squares Geometric Mean Ratio, Estimate ([3]; SC (1.1 mL) vs. IM (1.0 mL)): 100.71%; Cmax Least Squares Geometric Mean Ratio, Estimate ([3]; SC (1.1 mL) vs. IM (1.0 mL)): 123.42%; AUC(0-t) Least Squares Geometric Mean Ratio, Estimate ([3]; SC (1.1 mL) vs. SC (1.2 mL)): 94.40%; AUC(inf) Least Squares Geometric Mean Ratio, Estimate ([3]; SC (1.1 mL) vs. SC (1.2 mL)): 91.63%; Cmax Least Squares Geometric Mean Ratio, Estimate ([3]; SC (1.1 mL) vs. SC (1.2 mL)): 107.50%; AUC(0-t) Least Squares Geometric Mean Ratio, Estimate ([3]; SC (1.2 mL) vs. IM (1.0 mL)): 109.78%; AUC(inf) Least Squares Geometric Mean Ratio, Estimate ([3]; SC (1.2 mL) vs. IM (1.0 mL)): 109.91%; Cmax Least Squares Geometric Mean Ratio, Estimate ([3]; SC (1.2 mL) vs. IM (1.0 mL)): 114.81%; AUC(0-t) ([3]; im, 250 mg, IM 1.0 mL (250 mg) gluteus maximus, read-out: AUC(0-t), Least Squares Geometric Mean): 2680 ng·h/mL; AUC(0-t) ([3]; im, 250 mg, IM 1.0 mL (250 mg) gluteus maximus, read-out: AUC(0-t), geometric mean (geometric CV)): 2680 ng·h/mL; AUC(0-inf) ([3]; im, 250 mg, IM 1.0 mL (250 mg) gluteus maximus, read-out: AUC(inf), Least Squares Geometric Mean): 2910 ng·h/mL; AUC(0-inf) ([3]; im, 250 mg, IM 1.0 mL (250 mg) gluteus maximus, read-out: AUC(inf), geometric mean (geometric CV)): 2910 ng·h/mL; AUC(0-t) ([3]; sc, 275 mg, SC 1.1 mL (275 mg) arm, read-out: AUC(0-t), Least Squares Geometric Mean): 2770 ng·h/mL; AUC(0-inf) ([3]; sc, 275 mg, SC 1.1 mL (275 mg) arm, read-out: AUC(inf), Least Squares Geometric Mean): 2930 ng·h/mL; AUC(0-t) ([3]; sc, 275 mg, SC 1.1 mL (275 mg) triceps area, read-out: AUC(0-t), geometric mean (geometric CV)): 2770 ng·h/mL; AUC(0-inf) ([3]; sc, 275 mg, SC 1.1 mL (275 mg) triceps area, read-out: AUC(inf), geometric mean (geometric CV)): 2940 ng·h/mL; AUC(0-t) ([3]; sc, 300 mg, SC 1.2 mL (300 mg) arm, read-out: AUC(0-t), Least Squares Geometric Mean): 2940 ng·h/mL; AUC(0-inf) ([3]; sc, 300 mg, SC 1.2 mL (300 mg) arm, read-out: AUC(inf), Least Squares Geometric Mean): 3200 ng·h/mL; AUC(0-t) ([3]; sc, 300 mg, SC 1.2 mL (300 mg) triceps area, read-out: AUC(0-t), geometric mean (geometric CV)): 2940 ng·h/mL; AUC(0-inf) ([3]; sc, 300 mg, SC 1.2 mL (300 mg) triceps area, read-out: AUC(inf), geometric mean (geometric CV)): 3200 ng·h/mL; Cmax [3, 8]: 7.08 ng/mL; Tmax [3, 8]: 120 h; half-life [3, 8]: 220 h; Cmax [3, 9]: 8.74 ng/mL; Tmax [3, 9]: 24 h; half-life [3, 9]: 223 h; Cmax [3, 10]: 8.13 ng/mL; Tmax [3, 10]: 48 h; half-life [3, 10]: 225 h
